“Also recorded” adds a separate entry of the source.

One may read the Cmax as the peak of the concentration-time curve. Broadly, the MRT is a mean duration of stay, worked out from the concentration-time curve. The term Tmax denotes the time at which the peak concentration occurs.

Series [1] in a line: In vivo oral pharmacokinetics studies. Set-up: species or system Rabbits (Oryctolaguscuniculus). The note with it: rabbit, oral CFT aqueous solution. Here is the method:
The availability of CFT and internal standard cephalexin (CEP) in plasma was determined through reverse phase HPLC protocol developed and validated in our laboratories. The protein precipitation method was taken into account for extracting drug from plasma. Plasma (200 µL) containing both drugs was blended and vortexed with ACN (400 µL) for 2 min and the precipitate was separated by centrifugation at 15,483 G for 10 min. The acquired supernatant was concentrated in vacuum and reconstituted in buffer (TBAH, 100 µL; pH 7.0). A volume of 25 µL was injected into the HPLC system Shimadzu, LC20A (Shimadzu, Kyoto, Japan) equipped with a purospher C18 (5 µm, 250 × 4.6 mm) column. The mobile phase was comprised of ACN and TBAH buffer (0.005 M, pH 7.0) in a ratio of 25:75. The flow rate was adjusted to 1 mL/min, and the wavelength selected was 220 nm.
Animal studies were conducted under institutional guidelines by following the principals of institutional animal care. The studies were approved by the Ethics Committee of International Center for Chemical and Biological Sciences, University of Karachi (Project identification code ICCBS/CBSCR/IEC-014/2018; approved date 06-04-2018). All animals were healthy and purchased for Dow University of Health Sciences OJHA campus Karachi, Pakistan. Rabbits (Oryctolaguscuniculus) with 1.2 kg normal body weight were chosen for the assessment of oral in vivo pharmacokinetics studies. Rabbits were held under standard quarantine conditions with free access to food and water for 12 h. Before conducting the in vivo studies, rabbits were kept under fasting conditions but with free access to water. Rabbits were divided into three distinct categories (n = 4). The first category was given CFT-MIH-MNPs suspension at 25 mg/kg body weight portion. Rabbits of the second and third categories were provided with CFT in oral aqueous solution at 25 and 50 mg/kg body weight. Blood samples (1mL) were collected via marginal ear vein using an insulin plastic syringe at various intervals within 24 h. After centrifugation at 2688 G for 10 min, plasma was acquired and stored at –20 °C. Pharmacokinetics parameters were assessed by linear trapezoidal standard using a non-compartmental model from individual drug plasma concentrations with reference to a time curve for CFT after oral administration of nanoformulation and controls separately. The estimations of maximum drug plasma concentration (Cmax) and time to reach maximum plasma concentration (Tmax) were obtained from the drug plasma concentration curves. These parameters were utilized to ascertain the pharmacokinetics parameters area under the curve from zero to last quantifiable value (AUC0-24), mean residence time (MRT) and clearance (Cl).

Details of series [2]: method as in PMID 23143633. The conditions noted are these: ref [35]; cited from earlier work.

Consider `CO/N=C(\C(=O)N[C@@H]1C(=O)N2C(C(=O)O)=C(CSc3nc(=O)c(=O)[nH]n3C)CS[C@H]12)c1csc(N)n1` [CFT, Ceftriaxone], for which, in series [1] (albino, plasma, 50 mg/kg), the peak level (Cmax) was 2000 ± 600 ng/mL, the mean residence time (MRT) is 8.4 ± 0.1 h and the Tmax was 1.5 h. In addition, in series [1] (albino, plasma, 50 mg/kg, read-out: AUC0-24), the AUC(0-t) amounted to 16100 ± 3700 ng·h/mL. Further, in series [1] (25 mg/kg), the “CFT detection in blood plasma (HPLC)” value is “no drug was detected; also recorded: no detection of CFT in the blood plasma”. In series [1] (50 mg/kg), the Clearance turned out to be 3.91 ± 0.4 L/h and the Volume distribution is reported as 33.0 ± 1.94 L. The compound further yielded a Clearance in series [1] (50 mg/kg, listed as CFT Solution) of 3.9 ± 0.4 L/h. Further, the “pH (early neutral pH)” value in series [2] is given as “about 6.7”.

The values are drawn from PMC7355964, “Enhancement in Oral Absorption of Ceftriaxone by Highly Functionalized Magnetic Iron Oxide Nanoparticles” (Pharmaceutics, 2020).
